From patent US8178506B2, “Oligomeric compounds and compositions for use in modulation of small non-coding RNAs” (Regulus Therapeutics Inc., priority 2003, dated 2012)
In the oligonucleotide strings, read from the 5' end, every base follows the letter of its sugar. An asterisk marks phosphorothioate; unmarked linkages are phosphodiester. Other units and linkages are bracketed, terminal groups are in braces. A string of capitals states the bases alone. e = 2'-O-(2-methoxyethyl) (MOE); [5mC] = 5-methylcytosine; d = 2'-deoxy (DNA)

Tested on: IL-12 mRNA
Assay: IL-12 mRNA in LPS-activated primary murine macrophages
Format: cell-based, mouse
Details: for IL-12 mRNA expression, % UTC: LPS, average of 3 treatments; for IL-12 mRNA expression, −IFN % UTC: 300 nM oligomeric compound and LPS, no IFN-gamma pretreatment, single experiment; for IL-12 mRNA expression, −IFN % UTC / IL-12 mRNA expression, +IFN % UTC: normalized to LPS-treated cells without oligomeric compound; for IL-12 mRNA expression, +IFN % UTC: 300 nM oligomeric compound, stimulation with IFN-gamma and LPS, average of 2 experiments

Substance	IL-12 mRNA expression, −IFN % UTC [% UTC]	IL-12 mRNA expression, +IFN % UTC [% UTC]	other results
129690 (antisense TTAGAATACGTCGCGTTATG; sugars from the 5' end e5 d10 e5, all phosphorothioate, methylation of C not given here) [compound 129690]	73	129	IL-12 mRNA expression, % UTC (75 nM, +IFN): 66 % UTC; IL-12 mRNA expression, % UTC (75 nM, −IFN): 114 % UTC; IL-12 mRNA expression, % UTC (150 nM, +IFN): 54 % UTC; IL-12 mRNA expression, % UTC (150 nM, −IFN): 109 % UTC; IL-12 mRNA expression, % UTC (300 nM, +IFN): 66 % UTC; IL-12 mRNA expression, % UTC (300 nM, −IFN): 101 % UTC; IL-12 mRNA expression, % UTC (600 nM, +IFN): 81 % UTC; IL-12 mRNA expression, % UTC (600 nM, −IFN): 128 % UTC
327924 (antisense eG*e[5mC]*eA*eA*eG*e[5mC]*e[5mC]*e[5mC]*eA*eG*eA*e[5mC]*e[5mC]*eG*e[5mC]*eA*eA*eA*eA*eA*eG) [compound 327924]	171	88	–
327935 (antisense e[5mC]*eT*eA*e[5mC]*e[5mC]*eT*eG*e[5mC]*eA*e[5mC]*eT*eA*eT*eA*eA*eG*e[5mC]*eA*e[5mC]*eT*eT*eT*eA) [compound 327935]	254	24	–
327936 (antisense eA*e[5mC]*eA*eG*e[5mC]*eT*eG*eG*eT*eT*eG*eA*eA*eG*eG*eG*eG*eA*e[5mC]*e[5mC]*eA*eA) [compound 327936]	221	55	–
327940 (antisense eG*eA*eA*e[5mC]*eA*eG*eG*eT*eA*eG*eT*e[5mC]*eT*eG*eA*eA*e[5mC]*eA*e[5mC]*eT*eG*eG*eG) [compound 327940]	228	107	–
327945 (antisense e[5mC]*eT*eG*eT*eT*e[5mC]*e[5mC]*eT*eG*e[5mC]*eT*eG*eA*eA*e[5mC]*eT*eG*eA*eG*e[5mC]*e[5mC]*eA) [compound 327945]	202	68	–
327958 (antisense e[5mC]*e[5mC]*eG*eG*e[5mC]*eT*eG*e[5mC]*eA*eA*e[5mC]*eA*e[5mC]*eA*eA*eG*eA*e[5mC]*eA*e[5mC]*eG*eA) [compound 327958]	188	60	–
327959 (antisense e[5mC]*eA*eG*e[5mC]*e[5mC]*eG*e[5mC]*eT*eG*eT*e[5mC]*eA*e[5mC]*eA*e[5mC]*eG*e[5mC]*eA*e[5mC]*eA*eG) [compound 327959]	183	20	–
327961 (antisense eG*eG*eG*eG*eT*eA*eT*eT*eT*eG*eA*e[5mC]*eA*eA*eA*e[5mC]*eT*eG*eA*e[5mC]*eA) [compound 327961]	203	10	–
327963 (antisense eA*eA*e[5mC]*e[5mC]*eT*eA*eT*e[5mC]*e[5mC]*eT*eG*eA*eA*eT*eT*eA*e[5mC]*eT*eT*eG*eA*eA) [compound 327963]	224	23	–
327971 (antisense eG*eG*eA*eA*eA*eT*e[5mC]*e[5mC]*e[5mC]*eT*eG*eG*e[5mC]*eA*eA*eT*eG*eT*eG*eA*eT) [compound 327971]	146	17	–
